This note sets out measurements from patent US9555038B2, “Heterocycle-substituted tetracyclic compounds and methods of use thereof for the treatment of viral diseases” (Merck Sharp & Dohme Corp., priority 2013, dated 2017).

In one test the test system is HCV replicon 1A. As to the kind of experiment: Cell-based HCV Replicon Assay A, replicon 1A. On the procedure: (§1) To measure cell-based anti-HCV activity of compounds of the present invention, two complimentary assays were employed using various replicons. In the first assay (“Replicon Assay A”), replicon cells were seeded at 2000 cells/well in 384-well 384-well flat bottom tissue culture treated clear bottom plate (Corning 3707) in the presence of the test compound. Various concentrations of test compound, typically in 10 serial dilutions, were added to the assay mixture, with the starting concentration ranging from 333.3 nM to […]. The final concentration of DMSO was 0.5%. Fetal bovine serum was 5%, in the assay media. Cells were harvested on day 3 by removing media and washing the cells with a suitable wash buffer. The cells are lysed with the addition of 1× Qiagen lysis buffer (Cat #1062731). The replicon RNA level was measured using real time PCR (TaqMan® EZ RT-PCR, Applied Biosystems 403028) with the following primers and probes: […]
(§2) Cyclophilin RNA was used as endogenous control and was amplified in the same reaction as NS5B (multiplex PCR). The real-time RT-PCR reactions were run on ABI PRISM 7900HT Sequence Detection System using the following program: 50° C. for 2 minutes, 60° C. for 30 minutes, 95° C. for 5 minutes, 40 cycles of 94° C. for 20 sec, 55° C. for 1 minutes.
(§3) The amount of HCV replicon RNA per cell is quantified using a linear regression curve for a known nanogram (ng) amount of HCV replicon total RNA. This is established by plotting the Cycle Threshold values (Ct) from the Neo probe and primer set versus the log (ng) for each HCV replicon total RNA standard. The amount of HCV RNA for each replicon sample is calculated by taking the sample's Ct value, minus the line intercept, divided by the slope of the line. Similarly, the amount of Cyclophilin mRNA per cell is also quantified using a linear regression curve for a known nanogram (ng) amount of HCV replicon total RNA. Again, this is established by plotting the Cycle Threshold values (Ct) from the Cyclophilin probe and primer set versus the log (ng) for each HCV replicon total RNA standard.
(§4) Data was obtained for various compounds of the present invention using the methods described in the Example above, and is presented in the table immediately below. Data for replicons 1A, 1AY93H and 2B were obtained using Replicon Assay A and data for replicons 1AQ30D and 1B were obtained using Replicon Assay B.
(Replicon systems follow genome replication, usually without infectious particles.)

The next test deals with HCV replicon 2B. As to the kind of experiment: Cell-based HCV Replicon Assay A, replicon 2B. On the procedure: as §1, §2, §3, §4
The next test deals with HCV replicon 1AY93H. Kind of test: Cell-based HCV Replicon Assay A, replicon 1AY93H. Conditions: read-out: 1A Y93H IC50, replicon 1AY93H. As for the experimental part: as §1, §2, §3, §4
Setting [1] is: Hepatitis C virus, read-out: 2B IC50 (nM), replicon 2B.

The IC50 is the concentration needed to halve the response being measured.

Structures are written as SMILES. Read-outs that look alike come from different tables or passages of the source.

The molecule `COC(=O)N[C@H](C(=O)N1CCC[C@H]1c1ncc(-c2cc(F)c3c(c2)OC(c2cnc(-c4ncccn4)s2)n2c-3cc3cc(-c4cnc([C@@H]5CCCN5C(=O)[C@@H](NC(=O)OC)C(C)C)[nH]4)ccc32)[nH]1)C(C)C` (mixture of isomers) [Compound 411] had a half-maximal inhibitory concentration (IC50) in the test on HCV replicon 1A (Hepatitis C virus) of 0.0512 nM.

Molecule `COC(=O)N[C@H](C(=O)N1CCC[C@H]1c1ncc(-c2cc(F)c3c(c2)OC(c2sc(C)nc2C(F)(F)F)n2c-3cc3cc(-c4cnc([C@@H]5CCCN5C(=O)[C@@H](NC(=O)OC)C(C)C)[nH]4)ccc32)[nH]1)C(C)C` (mixture of isomers) [Compound 426] registered a 50% inhibitory concentration (IC50) in the test on HCV replicon 1A (Hepatitis C virus) of 0.0022 nM.

For `COC(=O)N[C@H](C(=O)N1CCC[C@H]1c1ncc(-c2cc(F)c3c(c2)OC(c2cncs2)n2c-3cc3cc(-c4cnc([C@@H]5CCCN5C(=O)[C@@H](NC(=O)OC)C(C)C)[nH]4)ccc32)[nH]1)C(C)C` (single isomer, unassigned) [Compound 1], the half-inhibitory concentration (IC50) in the test with HCV replicon 2B (read-out: 2B IC50, replicon 2B) came to 0.88 nM.

As to `COC(=O)N[C@H](C(=O)N1CCC[C@H]1c1ncc(-c2cc(F)c3c(c2)OC(c2cnns2)n2c-3cc3cc(-c4cnc([C@@H]5CCCN5C(=O)[C@@H](NC(=O)OC)C(C)C)[nH]4)ccc32)[nH]1)C(C)C` (single isomer, unassigned) [Compound 4], the IC50 with HCV replicon 1AY93H stood at 1.39 nM; in the test with HCV replicon 2B (read-out: 2B IC50, replicon 2B), 0.98 nM.

`COC(=O)N[C@H](C(=O)N1CCC[C@H]1c1ncc(-c2cc(F)c3c(c2)OC(c2nnc(C)s2)n2c-3cc3cc(-c4cnc([C@@H]5CCCN5C(=O)[C@@H](NC(=O)OC)C(C)C)[nH]4)ccc32)[nH]1)C(C)C` (single isomer, unassigned) [Compound 5]: the IC50 in the test with HCV replicon 2B (read-out: 2B IC50, replicon 2B) turned out to be 3.06 nM.

For the molecule `COC(=O)N[C@H](C(=O)N1CCC[C@H]1c1ncc(-c2cc(F)c3c(c2)OC(c2nnc(C)s2)n2c-3cc3cc(-c4cnc([C@@H]5CCCN5C(=O)[C@@H](NC(=O)OC)C(C)C)[nH]4)ccc32)[nH]1)C(C)C` (single isomer, unassigned) [Compound 6], the IC50 with HCV replicon 2B (setting [1]) was found to be 1.75 nM.

Consider `COC(=O)N[C@H](C(=O)N1CCC[C@H]1c1ncc(-c2cc(F)c3c(c2)OC(c2nc(C4CC4)cs2)n2c-3cc3cc(-c4cnc([C@@H]5CCCN5C(=O)[C@@H](NC(=O)OC)C(C)C)[nH]4)ccc32)[nH]1)C(C)C` (single isomer, unassigned) [Compound 11], for which the IC50 in the test with HCV replicon 1AY93H came to 14.4 nM; in the test with HCV replicon 2B (read-out: 2B IC50, replicon 2B), 6.06 nM.

Regarding `COC(=O)N[C@H](C(=O)N1CCC[C@H]1c1ncc(-c2cc(F)c3c(c2)OC(c2nc(C4CC4)cs2)n2c-3cc3cc(-c4cnc([C@@H]5CCCN5C(=O)[C@@H](NC(=O)OC)C(C)C)[nH]4)ccc32)[nH]1)C(C)C` (single isomer, unassigned) [Compound 12], the 50% inhibitory concentration (IC50) is 0.18 nM in the test on HCV replicon 1AY93H and 2.21 nM with HCV replicon 2B (read-out: 2B IC50, replicon 2B).

Regarding `COC(=O)N[C@H](C(=O)N1CCC[C@H]1c1ncc(-c2cc(F)c3c(c2)OC(c2cnc(C(F)F)s2)n2c-3cc3cc(-c4cnc([C@@H]5CCCN5C(=O)[C@@H](NC(=O)OC)C(C)C)[nH]4)ccc32)[nH]1)C(C)C` (single isomer, unassigned) [Compound 19], the half-inhibitory concentration (IC50) in the test with HCV replicon 1AY93H came to 1.24 nM; in the test with HCV replicon 2B (read-out: 2B IC50, replicon 2B), 0.933 nM.

Consider `COC(=O)N[C@H](C(=O)N1CCC[C@H]1c1ncc(-c2cc(F)c3c(c2)OC(c2cnc(C4CC4)s2)n2c-3c(F)c3cc(-c4cnc([C@@H]5CCCN5C(=O)[C@@H](NC(=O)OC)C(C)C)[nH]4)ccc32)[nH]1)C(C)C` (single isomer, unassigned) [Compound 22], for which the half-inhibitory concentration (IC50) with HCV replicon 1AY93H was determined as 0.86 nM; in the test with HCV replicon 2B (read-out: 2B IC50, replicon 2B), 0.44 nM.

On to `COC(=O)N[C@H](C(=O)N1CCC[C@H]1c1ncc(-c2cc(F)c3c(c2)OC(c2cnc(C4CCCC4)s2)n2c-3cc3cc(-c4cnc([C@@H]5CCCN5C(=O)[C@@H](NC(=O)OC)C(C)C)[nH]4)ccc32)[nH]1)C(C)C` (single isomer, unassigned) [Compound 26], for which the IC50 in the test with HCV replicon 1AY93H is 0.126 nM; with HCV replicon 2B (read-out: 2B IC50, replicon 2B) it was 0.449 nM.

With `COC(=O)NC(C(=O)N1CCC[C@H]1c1ncc(-c2ccc3c(c2)cc2n3C(c3cnc(-c4ccc(F)cc4)s3)Oc3cc(-c4cnc([C@@H]5CCCN5C(=O)[C@@H](NC(=O)OC)C(C)C)[nH]4)cc(F)c3-2)[nH]1)C1C[C@@H](C)O[C@@H](C)C1` (single isomer, unassigned) [Compound 79], the IC50 in the test with HCV replicon 1AY93H was found to be 0.0041 nM; in the test with HCV replicon 2B (read-out: 2B IC50, replicon 2B) it was 0.002 nM.

Consider `COC(=O)N[C@H](C(=O)N1CCC[C@H]1c1ncc(-c2cc(F)c3c(c2)OC(c2cnc(C(C)C)s2)n2c-3cc3cc(-c4cnc([C@@H]5CCCN5C(=O)[C@@H](NC(=O)OC)C(C)C)[nH]4)ccc32)[nH]1)C(C)C` (single isomer, unassigned) [Compound 85], for which the 50% inhibitory concentration (IC50) in the test on HCV replicon 1A (Hepatitis C virus) turned out to be 0.0014 nM; with HCV replicon 2B (read-out: 2B IC50, replicon 2B) it was 1.08 nM.

Consider `CCCc1ncc(C2Oc3cc(-c4cnc([C@@H]5CCCN5C(=O)[C@@H](NC(=O)OC)C(C)C)[nH]4)cc(C)c3-c3cc4cc(-c5cnc([C@@H]6CCCN6C(=O)C(NC(=O)OC)C6CCOC(C)(C)C6)[nH]5)ccc4n32)s1` (single isomer, unassigned) [Compound 226], for which, in the test with HCV replicon 2B (setting [1]), the IC50 stood at 0.005 nM.

For `COC(=O)NC(C(=O)N1[C@@H]2C[C@@H]2C[C@H]1c1ncc(-c2ccc3c(c2)cc2n3C(c3cnc(C4CC4)s3)Oc3cc(-c4cnc([C@@H]5CCCN5C(=O)[C@@H](NC(=O)OC)C(C)C)[nH]4)cc(C)c3-2)[nH]1)C1CCOC(C)(C)C1` (single isomer, unassigned) [Compound 227], the IC50 in the test on HCV replicon 2B (setting [1]) is 0.016 nM.

`COC(=O)NC(C(=O)N1[C@@H]2C[C@@H]2C[C@H]1c1ncc(-c2ccc3c(c2)cc2n3C(c3cnc(C4CC4)s3)Oc3cc(-c4cnc([C@@H]5CCCN5C(=O)[C@@H](NC(=O)OC)C(C)C)[nH]4)cc(F)c3-2)[nH]1)C1CCOC(C)(C)C1` (single isomer, unassigned) [Compound 314]: the IC50 with HCV replicon 1A is 0.0026 nM; in the test with HCV replicon 2B (read-out: 2B IC50, replicon 2B), 0.002 nM.

For the molecule `COC(=O)NC(C(=O)N1[C@@H]2C[C@@H]2C[C@H]1c1ncc(-c2ccc3c(c2)cc2n3C(c3cnc(C(C)(C)C)s3)Oc3cc(-c4cnc([C@@H]5CCCN5C(=O)[C@@H](NC(=O)OC)C(C)C)[nH]4)cc(F)c3-2)[nH]1)C1CCOC(C)(C)C1` (single isomer, unassigned) [Compound 329], in the test on HCV replicon 2B (read-out: 2B IC50, replicon 2B), the half-maximal inhibitory concentration (IC50) amounted to 0.16 nM.

`COC(=O)NC(C(=O)N1[C@@H]2C[C@@H]2C[C@H]1c1ncc(-c2ccc3c(c2)cc2n3C(c3cnc(C(C)(C)C)s3)Oc3cc(-c4cnc([C@@H]5CCCN5C(=O)[C@@H](NC(=O)OC)C(C)C)[nH]4)cc(F)c3-2)[nH]1)C1CCOC(C)(C)C1` (single isomer, unassigned) [Compound 330]: the concentration for half-maximal inhibition (IC50) in the test on HCV replicon 2B (read-out: 2B IC50, replicon 2B) was determined as 0.016 nM.

On to `COC(=O)N[C@H](C(=O)N1CCC[C@H]1c1ncc(-c2cc(F)c3c(c2)OC(c2nc4ccccc4s2)n2c-3cc3cc(-c4cnc([C@@H]5CCCN5C(=O)[C@@H](NC(=O)OC)C(C)C)[nH]4)ccc32)[nH]1)C(C)C` (single isomer, unassigned) [Compound 400], for which, in the test on HCV replicon 2B (read-out: 2B IC50, replicon 2B), the IC50 was greater than 1.67 nM.

Consider `COC(=O)N[C@H](C(=O)N1CCC[C@H]1c1ncc(-c2cc(F)c3c(c2)OC(c2cnc(-c4ccncc4)s2)n2c-3cc3cc(-c4cnc([C@@H]5CCCN5C(=O)[C@@H](NC(=O)OC)C(C)C)[nH]4)ccc32)[nH]1)C(C)C` (single isomer, unassigned) [Compound 410], for which the 50% inhibitory concentration (IC50) in the test with HCV replicon 2B (read-out: 2B IC50, replicon 2B) was found to be 1.5 nM.

On to `COC(=O)N[C@H](C(=O)N1CCC[C@H]1c1ncc(-c2cc(F)c3c(c2)OC(c2cnc(-c4ccc(C)o4)s2)n2c-3cc3cc(-c4cnc([C@@H]5CCCN5C(=O)[C@@H](NC(=O)OC)C(C)C)[nH]4)ccc32)[nH]1)C(C)C` (single isomer, unassigned) [Compound 412], for which, in the test with HCV replicon 2B (setting [1]), the IC50 was 0.12 nM.

Regarding `COC(=O)N[C@H](C(=O)N1CCC[C@H]1c1ncc(-c2cc(F)c3c(c2)OC(c2sc(C)nc2C(F)(F)F)n2c-3cc3cc(-c4cnc([C@@H]5CCCN5C(=O)[C@@H](NC(=O)OC)C(C)C)[nH]4)ccc32)[nH]1)C(C)C` (single isomer, unassigned) [Compound 427], in the test with HCV replicon 1A (Hepatitis C virus), half-maximal inhibition (IC50) required 0.0024 nM.

Consider `CCC(CC)c1ncc(C2Oc3cc(-c4cnc([C@@H]5CCCN5C(=O)[C@@H](NC(=O)OC)C(C)C)[nH]4)cc(F)c3-c3cc4cc(-c5cnc([C@@H]6CCCN6C(=O)[C@@H](NC(=O)OC)C(C)C)[nH]5)ccc4n32)s1` (single isomer, unassigned) [Compound 429], for which it took 0.0012 nM to reach half-maximal inhibition in the test with HCV replicon 1A (IC50).

For the molecule `COC(=O)N[C@H](C(=O)N1CCC[C@H]1c1ncc(-c2cc(F)c3c(c2)OC(c2cnc(CC(C)C)s2)n2c-3cc3cc(-c4cnc([C@@H]5CCCN5C(=O)[C@@H](NC(=O)OC)C(C)C)[nH]4)ccc32)[nH]1)C(C)C` (single isomer, unassigned) [Compound 513], in the test on HCV replicon 2B (replicon 2B, read-out: 2B IC50), the 50% inhibitory concentration (IC50) was 1.21 nM.
